Assay results: patent US10351576B2, “Fused tricyclic pyrazole derivatives useful for farnesoid X receptors” (NOVARTIS AG, priority 2015, dated 2019)

These compounds were tested against T1, human Farnesoid X Receptor (FXR) ligand binding domain (GST-FXR LBD) (Homo sapiens, UniProt Q96RI1) (assay: Human GST-FXR LBD co-activator interaction assay (FXR HTRF assay)). Conditions: ligand-dependent interaction of GST-FXR LBD with biotin-labeled SRC-1 peptide, response relative to GW4064, read-out: FXR coactivator interaction assay (HTRF).
T1 construct: purchased Invitrogen
T1 sequence (Q96RI1 193-472 isoform Q96RI1-2): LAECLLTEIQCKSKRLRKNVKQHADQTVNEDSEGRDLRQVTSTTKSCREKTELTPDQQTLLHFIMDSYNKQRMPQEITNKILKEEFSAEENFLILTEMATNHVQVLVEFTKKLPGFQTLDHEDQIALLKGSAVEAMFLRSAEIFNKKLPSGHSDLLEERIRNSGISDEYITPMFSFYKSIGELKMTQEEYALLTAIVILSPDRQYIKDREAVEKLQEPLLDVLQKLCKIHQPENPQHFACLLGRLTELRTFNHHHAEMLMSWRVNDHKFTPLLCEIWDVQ
Assay type: biochemical
Excerpt: Human GST-FXR LBD Co-Activator Interaction Assay
The FXR HTRF assay is a biochemical assay measuring the interaction between FXR and a coactivator protein (SRC1). The ligand-induced interaction with a coactivator protein is a critical step in transcriptional activation by FXR. Thus, this is an assay designed to measure FXR agonist activity of the test compounds.
Recombinant human Farnesoid X Receptor (FXR) ligand binding domain (amino acids 193-472) fused to glutathione S-transferase (GST) purified protein (GST-FXR LBD) was purchased (Invitrogen). The ligand-dependent interaction between GST-FXR LBD and a peptide derived from Steroid Receptor Coactivator-1 (SRC-1) was monitored by Fluorescence Resonance Energy Transfer (FRET). […] Test compounds (in DMSO solution) and detection reagents (anti-GST-Cryptate labeled antibody and Streptavidin-XL665 conjugate; CisBio) were added in assay buffer containing 50 mM KF. Plates are incubated at room temperature in the dark for 2.5 hrs before reading on an Envision (PerkinElmer) at 665 nm and 590 nm. The HTRF assay results were calculated from the 665 nm/590 nm ratio (ratio=(A665 nm/A590 nm)×10^4) and expressed in Delta F %=(Ratiosample−Rationegative)/Rationegative×100.
A negative control (without Streptavidin-XL665) was run with each assay and represented the background fluorescence. A reference FXR agonist, (E)-3-(2-chloro-4-((3-(2,6-dichlorophenyl)-5-isopropylisoxazol-4-yl)methoxy)styryl)benzoic acid (Compound GW4064), was included in each experiment as positive control. The efficacy of each test compound was compared to that of GW4064. At each concentration, the relative activity of the test compound was expressed as Response %=(Rsample−RDMSO)/(Rpositive−RDMSO), where Rsample is the HTRF response (expressed in Delta F %) for the test compound, Rpositive is the maximal response for GW4064 at saturating concentrations, and RDMSO is the response for DMSO control. The EC50 values were calculated using GraphPad Prism (GraphPad Software) using non-linear regression curve fit (log(agonist) vs. response—variable slope (four parameters)).

| SMILES | EC50 [nM] |
| --- | --- |
| Cn1nc(C(=O)N(CC(=O)NC(C)(C)C)Cc2cccc(F)c2)c2c1-c1cc(Cl)ccc1OC2 [Compound 14, N-tert-butyl-2-(1-{8-chloro-1-methyl-1H,4H-chromeno[4,3-c]pyrazol-3-yl}-N-[(3-fluorophenyl)methyl]formamido)acetamide] | 58 |
| Cn1nc(C(=O)N(CC(=O)NCC2CC2)Cc2cccc(F)c2)c2c1-c1cc(Cl)ccc1OC2 [Compound 1, 8-chloro-N-(2-((cyclopropylmethyl)amino)-2-oxoethyl)-N-(3-fluorobenzyl)-1-methyl-1,4-dihydrochromeno[4,3-c]pyrazole-3-carboxamide] | 2 |
| Cn1nc(C(=O)N(CC(=O)NCC2CC2)CC2CCCC2)c2c1-c1cc(Cl)ccc1OC2 [Compound 75, 2-(1-{8-chloro-1-methyl-1H,4H-chromeno[4,3-c]pyrazol-3-yl}-N-(cyclopentylmethyl)formamido)-N-(cyclopropylmethyl)acetamide] | 87 |
| Cn1nc(C(=O)N(CC(=O)NCC2CC2)Cc2cccc(F)c2F)c2c1-c1cc(Cl)ccc1OC2 [Compound 6, 2-(1-{8-chloro-1-methyl-1H,4H-chromeno[4,3-c]pyrazol-3-yl}-N-[(2,3-difluorophenyl)methyl]formamido)-N-(cyclopropylmethyl) acetamide] | 12 |
| CC(C)NC(=O)CN(Cc1cc(F)ccc1F)C(=O)c1nn(C)c2c1COc1ccc(Cl)cc1-2 [Compound 26, 2-(1-{8-chloro-1-methyl-1H,4H-chromeno[4,3-c]pyrazol-3-yl}-N-[(2,5-difluorophenyl)methyl]formamido)-N-(propan-2-yl)acetamide] | 84 |
| Cn1nc(C(=O)N(CC(=O)NC2CC2)Cc2ccccc2F)c2c1-c1cc(Cl)ccc1OC2 [Compound 8, 2-(1-{8-chloro-1-methyl-1H,4H-chromeno[4,3-c]pyrazol-3-yl}-N-[(2-fluorophenyl)methyl]formamido)-N-cyclopropylacetamide] | 31 |
| CC(C)S(=O)(=O)NCCN(Cc1ccccc1F)C(=O)c1nn(C)c2c1COc1ccc(Cl)cc1-2 [Compound 63, 8-chloro-N-[(2-fluorophenyl)methyl]-1-methyl-N-[2-(propane-2-sulfonamido)ethyl]-1H,4H-chromeno[4,3-c]pyrazole-3-carboxamide] | 644 |
| Cn1nc(C(=O)N(CC(=O)NC2CCS(=O)(=O)C2)Cc2cccc(F)c2)c2c1-c1cc(Cl)ccc1OC2 (centres unmarked) [Compound 36, 8-chloro-N-(2-((1,1-dioxidotetrahydrothiophen-3-yl)amino)-2-oxoethyl)-N-(3-fluorobenzyl)-1-methyl-1,4-dihydrochromeno[4,3-c]pyrazole-3-carboxamide] | 99 |
| Cn1nc(C(=O)N(CC(=O)NC2CC2(F)F)Cc2cccc(F)c2)c2c1-c1cc(Cl)ccc1OC2 (centres unmarked) [Compound 10, 2-(1-{8-chloro-1-methyl-1H,4H-chromeno[4,3-c]pyrazol-3-yl}-N-[(3-fluorophenyl)methyl]formamido)-N-(2,2-difluorocyclopropyl)acetamide] | 21 |
| Cn1nc(C(=O)N(CC(=O)NC[C@@H]2CCCO2)Cc2ccccc2F)c2c1-c1cc(Cl)ccc1OC2 [Compound 21, 2-(1-{8-chloro-1-methyl-1H,4H-chromeno[4,3-c]pyrazol-3-yl}-N-[(2-fluorophenyl)methyl]formamido)-N-[(2S)-oxolan-2-ylmethyl]acetamide] | 160 |
| Cn1nc(C(=O)N(CC(=O)NC2CCCC2)Cc2ccccc2F)c2c1-c1cc(Cl)ccc1OC2 [Compound 18, 2-(1-{8-chloro-1-methyl-1H,4H-chromeno[4,3-c]pyrazol-3-yl}-N-[(2-fluorophenyl)methyl]formamido)-N-cyclopentylacetamide] | 64 |
| Cn1nc(C(=O)N(CC(=O)NCCC(F)(F)F)Cc2cccc(F)c2)c2c1-c1cc(Cl)ccc1OC2 [Compound 2, 2-(1-{8-chloro-1-methyl-1H,4H-chromeno[4,3-c]pyrazol-3-yl}-N-[(3-fluorophenyl)methyl]formamido)-N-(3,3,3-trifluoropropyl)acetamide] | 3 |
| Cn1nc(C(=O)N(CC(=O)NC2CC2)Cc2cccc(F)c2F)c2c1-c1cc(Cl)ccc1OC2 [Compound 22, 2-(1-{8-chloro-1-methyl-1H,4H-chromeno[4,3-c]pyrazol-3-yl}-N-[(2,3-difluorophenyl)methyl]formamido)-N-cyclopropylacetamide] | 60 |
| Cn1nc(C(=O)N(CC(=O)NC2CC2)Cc2cccc(F)c2)c2c1-c1cc(Cl)ccc1OC2 [Compound 27, 2-(1-{8-chloro-1-methyl-1H,4H-chromeno[4,3-c]pyrazol-3-yl}-N-[(3-fluorophenyl)methyl]formamido)-N-cyclopropylacetamide] | 61 |
| CC(C)NC(=O)CN(Cc1cccc(F)c1)C(=O)c1nn(C)c2c1COc1ccc(Cl)cc1-2 [Compound 15, 2-(1-{8-chloro-1-methyl-1H,4H-chromeno[4,3-c]pyrazol-3-yl}-N-[(3-fluorophenyl)methyl]formamido)-N-(propan-2-yl)acetamide] | 27 |
| Cn1nc(C(=O)N(CC(=O)NCC2CCCO2)Cc2ccccc2F)c2c1-c1cc(Cl)ccc1OC2 (centres unmarked) [Compound 31, 2-(1-{8-chloro-1-methyl-1H,4H-chromeno[4,3-c]pyrazol-3-yl}-N-[(2-fluorophenyl)methyl]formamido)-N-(oxolan-2-ylmethyl)acetamide] | 124 |
| Cn1nc(C(=O)N(CC(=O)NC(C)(C)c2ccccc2)Cc2ccccc2F)c2c1-c1cc(Cl)ccc1OC2 [Compound 43, 2-(1-{8-chloro-1-methyl-1H,4H-chromeno[4,3-c]pyrazol-3-yl}-N-[(2-fluorophenyl)methyl]formamido)-N-(2-phenylpropan-2-yl)acetamide] | 1700 |
